Patent US11541055B2, “Inhibitors of human immunodeficiency virus replication” (ViiV Healthcare UK (No. 5) LIMITED, priority 2018, dated 2023)

Experiments:
[1] = test system: recombinant NL4-3 virus (Renilla luciferase) in MT-2 cells; assay: HIV cell culture assay (antiviral activity, luciferase readout); assay type: cell-based; settings: Renilla, NL43
Method in brief: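 Antiviral EC50 was derived via the median effect equation from luciferase signal. The signal came from MT-2 cultures infected for 4–5 days with a nef-deleted, Renilla luciferase-expressing NL4-3 reporter virus (made in 293T cells) in the presence of compound dilutions.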

[2] = Compound cytotoxicity, XTT-based colorimetric assay; assay type: cell-based; settings: human; uninfected MT2 cells, day 4, XTT
Method in brief: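 Run under the antiviral-assay protocol but without virus. Viability was read on day 4 and CC50 values were derived from the readout.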

| SMILES | EC50 [1] | CC50 at 4 days [2] |
| --- | --- | --- |
| Cn1nc(NS(C)(=O)=O)c2c(Cl)ccc(-n3c([C@H](Cc4cc(F)cc(F)c4)NC(=O)Cn4nc(C(F)F)c5c4C(F)(F)[C@@H]4C[C@H]54)nc4cc(-c5nccnc5CO)ccc4c3=O)c21 (atropisomer, axis not shown; (P)) [Example 18, N—((S)-1-((3P)-3-(4-chloro-1-methyl-3-(methylsulfonamido)-1H-indazol-7-yl)-7-(3-(hydroxymethyl)pyrazin-2-yl)-4-oxo-3,4-dihydroquinazolin-2-yl)-2-(3,5-difluorophenyl)ethyl)-2-((3bS,4aR)-3-(difluoromethyl)-5,5-difluoro-3b,4,4a,5-tetrahydro-1H-cyclopropa[3,4]cyclopenta[1,2-c]pyrazol-1-yl)acetamide] | 0.099 nM | > 500 nM |
| COc1cc(C)nc(-c2ccc3c(=O)n(-c4ccc(Cl)c5c(NS(C)(=O)=O)nn(C)c45)c([C@H](Cc4cc(F)cc(F)c4)NC(=O)Cn4nc(C(F)F)c5c4C(F)(F)[C@@H]4C[C@H]54)nc3c2)c1 (atropisomer, axis not shown; (P)) [Example 57, N—((S)-1-((3P)-3-(4-chloro-1-methyl-3-(methylsulfonamido)-1H-indazol-7-yl)-7-(4-methoxy-6-methylpyridin-2-yl)-4-oxo-3,4-dihydroquinazolin-2-yl)-2-(3,5-difluorophenyl)ethyl)-2-((3bS,4aR)-3-(difluoromethyl)-5,5-difluoro-3b,4,4a,5-tetrahydro-1H-cyclopropa[3,4]cyclopenta[1,2-c]pyrazol-1-yl)acetamide] | 0.15 nM | > 500 nM |
| Cc1nccc(-c2ccc3c(=O)n(-c4ccc(Cl)c5c(NS(=O)(=O)C6CC6)nn(CC(F)F)c45)c([C@H](Cc4cc(F)cc(F)c4)NC(=O)Cn4nc(C(F)F)c5c4C(F)(F)[C@@H]4C[C@H]54)nc3c2)n1 (atropisomer, axis not shown; (P)) [Example 81, N—((S)-1-((3P)-3-(4-chloro-3-(cyclopropanesulfonamido)-1-(2,2-difluoroethyl)-1H-indazol-7-yl)-7-(2-methylpyrimidin-4-yl)-4-oxo-3,4-dihydroquinazolin-2-yl)-2-(3,5-difluorophenyl)ethyl)-2-((3bS,4aR)-3-(difluoromethyl)-5,5-difluoro-3b,4,4a,5-tetrahydro-1H-cyclopropa[3,4]cyclopenta[1,2-c]pyrazol-1-yl)acetamide] | 0.092 nM | > 500 nM |
| Cc1cc(C)c(C(F)(F)F)c(-c2ccc3c(=O)n(-c4ccc(Cl)c5c(NS(C)(=O)=O)nn(C)c45)c([C@H](Cc4cc(F)cc(F)c4)NC(=O)Cn4nc(C(F)F)c5c4C(F)(F)[C@@H]4C[C@H]54)nc3c2)n1 (atropisomer, axis not shown; (P)) [Example 52, N—((S)-1-((3P)-3-(4-chloro-1-methyl-3-(methylsulfonamido)-1H-indazol-7-yl)-7-(4,6-dimethyl-3-(trifluoromethyl)pyridin-2-yl)-4-oxo-3,4-dihydroquinazolin-2-yl)-2-(3,5-difluorophenyl)ethyl)-2-((3bS,4aR)-3-(difluoromethyl)-5,5-difluoro-3b,4,4a,5-tetrahydro-1H-cyclopropa[3,4]cyclopenta[1,2-c]pyrazol-1-yl)acetamide] | 0.48 nM | > 500 nM |
| COc1cnc(-c2ccc3c(=O)n(-c4ccc(Cl)c5c(NS(C)(=O)=O)nn(CC(F)(F)F)c45)c([C@H](Cc4cc(F)cc(F)c4)NC(=O)Cn4nc(C(F)F)c5c4C(F)(F)[C@@H]4C[C@H]54)nc3c2)nc1 (atropisomer, axis not shown) [Example 115, N-[(1S)-1-{3-[4-chloro-3-methanesulfonamido-1-(2,2,2-trifluoroethyl)-1H-indazol-7-yl]-7-(5-methoxypyrimidin-2-yl)-4-oxo-3,4-dihydroquinazolin-2-yl}-2-(3,5-difluorophenyl)ethyl]-2-[(2S,4R)-9-(difluoromethyl)-5,5-difluoro-7,8-diazatricyclo[4.3.0.0^2,^4]nona-1(6),8-dien-7-yl]acetamide] | 0.098 nM | > 500 nM |
| CS(=O)(=O)Nc1nn(CC(F)F)c2c(-n3c([C@H](Cc4cc(F)cc(F)c4)NC(=O)Cn4nc(C(F)F)c5c4C(F)(F)[C@@H]4C[C@H]54)nc4cc(-c5cccc(C(F)(F)F)n5)ccc4c3=O)ccc(Cl)c12 [Example 138, N-[(1S)-1-{3-[4-chloro-1-(2,2-difluoroethyl)-3-methanesulfonamido-1H-indazol-7-yl]-4-oxo-7-(trifluoromethyppyridin-2-yl]-3,4-dihydroquinazolin-2-yl}-2-(3,5-difluorophenyl)ethyl]-2-[(2S,4R)-9-(difluoromethyl)-5,5-difluoro-7,8-diazatricyclo[4.3.0.0^2,^4]nona-1(6),8-dien-7-yl]acetamide] | 0.079 nM | > 500 nM |
| O=C(Cn1nc(C(F)F)c2c1C(F)(F)[C@@H]1C[C@H]21)N[C@@H](Cc1cc(F)cc(F)c1)c1nc2cc(-c3nccc(C(F)(F)F)n3)ccc2c(=O)n1-c1ccc(Cl)c2c(NS(=O)(=O)C3CC3)nn(CC(F)F)c12 (atropisomer, axis not shown; (P)) [Example 84, N—((S)-1-((3P)-3-(4-chloro-3-(cyclopropanesulfonamido)-1-(2,2-difluoroethyl)-1H-indazol-7-yl)-4-oxo-7-(4-(trifluoromethyl)pyrimidin-2-yl)-3,4-dihydroquinazolin-2-yl)-2-(3,5-difluorophenyl)ethyl)-2-((3bS,4aR)-3-(difluoromethyl)-5,5-difluoro-3b,4,4a,5-tetrahydro-1H-cyclopropa[3,4]cyclopenta[1,2-c]pyrazol-1-yl)acetamide] | 0.22 nM | > 500 nM |
| COc1ncc(-c2ccc3c(=O)n(-c4ccc(Cl)c5c(NS(C)(=O)=O)nn(CC(F)F)c45)c([C@H](Cc4cc(F)cc(F)c4)NC(=O)Cn4nc(C(F)F)c5c4C(F)(F)[C@@H]4C[C@H]54)nc3c2)cn1 (atropisomer, axis not shown) [Example 125, N-[(1S)-1-{3-[4-chloro-1-(2,2-difluoroethyl)-3-methanesulfonamido-1H-indazol-7-yl]-7-(2-methoxypyrimidin-5-yl)-4-oxo-3,4-dihydroquinazolin-2-yl}-2-(3,5-difluorophenyl)ethyl]-2-[(2S,4R)-9-(difluoromethyl)-5,5-difluoro-7,8-diazatricyclo[4.3.0.0^2,^4]nona-1(6),8-dien-7-yl]acetamide] | 0.06 nM | > 500 nM |
| Cc1cc(C)nc(-c2ccc3c(=O)n(-c4ccc(Cl)c5c(NS(C)(=O)=O)nn(CC(F)F)c45)c([C@H](Cc4cc(F)cc(F)c4)NC(=O)Cn4nc(C(F)F)c5c4C(F)(F)[C@@H]4C[C@H]54)nc3c2)c1 (atropisomer, axis not shown) [Example 137, N-[(1S)-1-{3-[4-chloro-1-(2,2-difluoroethyl)-3-methanesulfonamido-1H-indazol-7-yl]-7-(4,6-dimethylpyridin-2-yl)-4-oxo-3,4-dihydroquinazolin-2-yl}-2-(3,5-difluorophenyl)ethyl]-2-[(2S,4R)-9-(difluoromethyl)-5,5-difluoro-7,8-diazatricyclo[4.3.0.0^2,^4]nona-1(6),8-dien-7-yl]acetamide] | 0.2 nM | > 500 nM |
| CC(C)(C)S(=O)(=O)c1cccc(-c2ccc3c(=O)n(-c4ccc(Cl)c5c(NS(C)(=O)=O)nn(CC(F)F)c45)c([C@H](Cc4cc(F)cc(F)c4)NC(=O)Cn4nc(C(F)F)c5c4C(F)(F)[C@@H]4C[C@H]54)nc3c2)c1 (atropisomer, axis not shown) [Example 127] | 0.14 nM | > 500 nM |
| Cc1ccc(F)c(-c2ccc3c(=O)n(-c4ccc(Cl)c5c(NS(C)(=O)=O)nn(CC(F)(F)F)c45)c([C@H](Cc4cc(F)cc(F)c4)NC(=O)Cn4nc(C(F)F)c5c4C(F)(F)[C@@H]4C[C@H]54)nc3c2)n1 (atropisomer, axis not shown) [Example 113] | 0.1 nM | > 500 nM |
| Cc1cc(-c2ccc3c(=O)n(-c4ccc(Cl)c5c(NS(C)(=O)=O)nn(CC(F)F)c45)c([C@H](Cc4cc(F)cc(F)c4)NC(=O)Cn4nc(C(F)F)c5c4C(F)(F)[C@@H]4C[C@H]54)nc3c2)nc(C)n1 (atropisomer, axis not shown) [Example 131, N-[(1S)-1-{3-[4-chloro-1-(2,2-difluoroethyl)-3-methanesulfonamido-1H-indazol-7-yl]-7-(2,6-dimethylpyrimidin-4-y1)-4-oxo-3,4-dihydroquinazolin-2-y1}-2-(3,5-difluorophenyl)ethyl]-2-[(2S,4R)-9-(difluoromethyl)-5,5-difluoro-7,8-diazatricyclo[4.3.0.0^2,^4]nona-1(6),8-dien-7-yl]acetamide] | 0.038 nM | > 500 nM |
| CCc1cc(C)nc(-c2ccc3c(=O)n(-c4ccc(Cl)c5c(NS(=O)(=O)C6CC6)nn(CC(F)F)c45)c([C@H](Cc4cc(F)cc(F)c4)NC(=O)Cn4nc(C(F)F)c5c4C(F)(F)[C@@H]4C[C@H]54)nc3c2)n1 (atropisomer, axis not shown; (P)) [Example 82, N—((S)-1-((3P)-3-(4-chloro-3-(cyclopropanesulfonamido)-1-(2,2-difluoroethyl)-1H-indazol-7-yl)-7-(4-ethyl-6-methylpyrimidin-2-yl)-4-oxo-3,4-dihydroquinazolin-2-yl)-2-(3,5-difluorophenyl)ethyl)-2-((3bS,4aR)-3-(difluoromethyl)-5,5-difluoro-3b,4,4a,5-tetrahydro-1H-cyclopropa[3,4]cyclopenta[1,2-c]pyrazol-1-yl)acetamide] | 0.25 nM | > 500 nM |
